One compound from patent publication US20230054767A1, “COMBINATIONS” (Recurium IP Holdings, LLC, priority 2019, published 2023) can be followed below.

Type in all cases: in vivo
The subject of test [1] is MCF-7 cells. Kind of test: Example 1: MCF-7 xenograft tumor model, Compound A and Compound 5. The conditions noted are these: BALB/c nude mice, orally once a day for 21 days, Compound A 10 mg/kg, Compound 5 200 mg/kg, alone or combined. Here is the method: Example 1: MCF-7 cells were grown in DMEM Medium supplemented with 15% heat inactivated fetal bovine serum at 37° C. in an atmosphere of 5% CO2 in air. BALB/c nude mice were implanted subcutaneously on the 2nd right mammary fat pad with a single cell suspension of 95% viable tumor cells (1.5×10^7) in 200 μL DMEM Matrigel mixture (1:1 ratio) without serum. When tumors reached approximately 172 mm^3, animals were randomly distributed into treatment groups of 10 animals each and dosed orally, once a day for 21 days as follows: vehicle at the same volume as the single agent treatment; Compound A (alternatively referred to as “Compound (A)” in the specification and figures) at 10 mg/kg; Compound 5 at 200 mg/kg; and the combination treatment of Compound A 10 mg/kg) and Compound 5 (200 mg/kg). In addition, estradiol benzoate injections were given subcutaneously (40 μg/ 20 μL, twice weekly) to all treatment groups. Tumor volumes were evaluated twice per week to calculate tumor volume over time, and mice were weighed twice per week as a surrogate for signs of toxicity. Tumor growth inhibition (TGI) was calculated using the following equation TGI=(1−(Td−T0)/(Cd−C0))×100%. […] The percent tumor regression was calculated using the formula: (1−(Td/T0))×100%.

The test system of test [2] is MCF-7 cells. The test can be described thus: Example 2: MCF-7 xenograft tumor model, Compound A (5 mg/kg) and Compound 5. The settings on record: BALB/c nude mice, orally once a day for 24 days, Compound 5 200 mg/kg, alone or combined. The procedure:
(§1) Example 1: MCF-7 cells were grown in DMEM Medium supplemented with 15% heat inactivated fetal bovine serum at 37° C. in an atmosphere of 5% CO2 in air. BALB/c nude mice were implanted subcutaneously on the 2nd right mammary fat pad with a single cell suspension of 95% viable tumor cells (1.5×10^7) in 200 μL DMEM Matrigel mixture (1:1 ratio) without serum. […] Tumor volumes were evaluated twice per week to calculate tumor volume over time, and mice were weighed twice per week as a surrogate for signs of toxicity. […] The percent tumor regression was calculated using the formula: (1−(Td/T0))×100%.
Example 2: MCF-7 cells were grown in DMEM Medium supplemented with 15% heat inactivated fetal bovine serum at 37° C. in an atmosphere of 5% CO2 in air. […] Tumor volumes were evaluated twice per week to calculate tumor volume over time, and mice were weighed twice per week as a surrogate for signs of toxicity. TGI and Tumor regression values were calculated using the equations provided in Example 1. […]

Test [3] deals with MCF-7 cells. The test can be described thus: Example 3: MCF-7 xenograft tumor model, Compound A and Compound 6. The conditions noted are these: BALB/c nude mice, orally once a day for 28 days, Compound A 10 mg/kg, Compound 6 50 mg/kg, alone or combined. Here is the method:
as §1
Example 3: MCF-7 cells were grown in DMEM Medium supplemented with 15% heat inactivated fetal bovine serum at 37° C. in an atmosphere of 5% CO2 in air. […] Tumor volumes were evaluated twice per week to calculate tumor volume over time, and mice were weighed twice per week as a surrogate for signs of toxicity. TGI and Tumor regression values were calculated using the equations provided in Example 1.

Structures are written as SMILES.

For `C[C@@H]1Cc2c([nH]c3ccccc23)[C@@H](c2c(F)cc(/C=C/C(=O)O)cc2F)N1C12CC(C1)C2` [Compound A], in test [1], the “TUMOR REGRESSION % (DAY 21)” value is 0%. The “TGI % (DAY 21)” value in test [1] (estradiol benzoate s.c.) was 81%. Further, the “TUMOR REGRESSION % (DAY 24)” value in test [2] was 8%. Besides, in test [2] (estradiol benzoate s.c.), the “TGI % (DAY 24)” value is 108%. Besides, the “TUMOR REGRESSION % (DAY 29)” value in test [3] came to 33%. Also, in test [3] (estradiol benzoate s.c.), the “TGI % (DAY 29)” value is reported as 120%.
